# Marks after values point to notes of the source that are not given here.
# Key:
# NMDA-induced seizures = NMDA-induced seizures in mice; assay type: in vivo
# Protocol: Animals—Male Swiss Webster mice (20-30 g) or male Sprague-Dawley rats (250-300 g) were used. All that employed animals were conducted in strict compliance with the NIH guidelines on animal use and institutional regulations concerning animal experimentation. Animals were exposed to hyperbaric oxygen in a specify designed press chamber as previously described (M. D. Faiman et al., Biochem. Pharmacol., 20, 3049-3067 (1971); M. D. Faiman et al. Aerosp. Med.,45, 29032.(1974)). The time to first clonic-tonic seizure after brining animals to a final pressure of five atmospheres of 100% oxygen or after intraperitoneal injection of convulsants was noted by. criteria outlined previously (M. D. Faiman et al. (1971), supra M. D. Faiman et al. (1974), supra). Unless otherwise specified, the ability of DETC-MeSO to prevent seizures was tested by intraperitoneal injection of 5.2 mg/kg of DETC-MeSO 1-2 hours prior to bringing the animal to a final pressure of 5 atmospheres of 100% oxygen or intraperitoneal injection of N-methyl-D-asparate (NMA) (125 mg/kg) r L-methionine sulfoximine (MetSOX) (250 mg/kg). Evaluation of the statistics for whole animal experiments or for changes in brain glutamate binding after administration of DETC-MeSO was conducted by use of the program GraphPAD InStat from Graph PAD Software (San Diego, Calif.).
# [1] = system: brain glutamate receptors (synaptic membranes); test: Glutamate binding to synaptic membranes isolated from treated mice; assay type: in vivo, mouse
# Protocol: Binding Studies—Synaptic membranes (100 μg protein) were isolated (Y. H. Lee et al., J. Neurosci. Res. 40, 797-806 (1995)) form whole brain homogenate of male Swiss Webster mice and were incubated in 0.1 mM L-glutamate for 30 minutes at 25° C. After addition of 50 nM of [^3H]glutamate, incubation was continued for an additional 45 minutes. Reactions were terminated by centrifugation at 4° C. to separate membrane-bound from free radioactivity. Nonspecific binding (radioactivity bound in the presence of 0.5 mM unlabeled glutamate) averages: 20-30% of total radioactivity bound. The rate (k) and maximum percent blockage of glutamate binding (M) by DETC-MeSO (1) during the incubation time (t) was determined by fitting the equation [% inhibition]=M(1−e^−kh) to these day by use of the program Grafit (Erithicus Software Ltd.). This equation was derived for first-order inactivation by a group specific reagent that gives a partial effect. If “A” is the percent of binding activity that remains after extensive exposure (t=of the receptor to excess DETC-MeSO, then M=100−A)e^−kh+A; substituting (100−M) for “A” and [100−% inhibition] for “a” in this equation gives the one employed for purposes of data analyses. […] A second equation was employed in the analysis of binding data that defines partial, irreversible inactivation of two distinct groups of receptors [% inhibition]=M1(1−e^−k1^IT)+M2(1−e^−k1^IT), where M1 and M2 are the maximum amount of inhibition obtained for complete modification of each receptor population and k1 and k2 are the rate constants for these modifications, respectively.
# Synaptic membranes were prepared from the brains of mice injected with DETC-MeSO (5.2 mg/kg, i.p.). The ability of synaptic membrane preparations isolated from DETC-MeSO-treated mice to bind glutamate was compared with similar preparations isolated from control animals. FIG. 3(A) illustrates the results obtained from synaptic membranes prepared from brains of mice killed two hours after a single dose of DETC-MeSO, or two hours after the last injection of multiple consecutive doses (5.2 mg/kg, i.p., daily for seven days). Either single or multiple dosing with DETC-MeSO reduced the capacity of synaptic membranes to bind glutamate by approximately 50%, the maximum effect obtained in vitro (FIG. 3). Each bar represents the average of results obtained from four animals and the error bars are for one standard deviation.
# [2] = system: succinic semi-aldehyde dehydrogenase (SSA DH); test: In vitro inactivation of succinic semi-aldehyde dehydrogenase; assay type: biochemical
# Protocol: To test whether the protective effect of DETC-MeSO in hyperbaric O2-induced convulsions in mice could be due to inhibition of succinic semi-aldehyde dehydrogenase (SSA DH), mechanistically related to ALDH2, the sensitivity of SSA DH to inactivation by DETC-MeSO was determined. Potentially, inhibition of SSA DH in brain could offset the build up of ammonia known to occur and produce more GABA. In vitro both ALDH2 and SSA DH are inactivated by DETC-MeSO at 47 M-1 s-1 and 300 M-1 s-1, respectively.
structure (smiles),measurement,setting,value
"CCN(CC)C(=O)[S+](C)[O-] (stereo not drawn) [DETC-MeSO, S-Methyl-N,N-Diethylthiolcarbamate Sulfoxide]",effect on seizures that result from NMDA administration,NMDA-induced seizures; NMDA 125 mg/kg i.p.,prevented seizures
same,number of animals that exhibited the effect/total number of animals in the group,"NMDA-induced seizures; NMDA 125 mg/kg, 5.2 mg/kg i.p. 1-2 hours prior",(0/6)^a
same,mean time to seizure,"NMDA-induced seizures; NMDA 125 mg/kg, 5.2 mg/kg i.p. 1-2 hours prior, observation 2 hours",>120^a min
same,irreversible brain glutamate receptor blockage,"[1]; 30 μmol/kg intravenous, mice",38.2±1.6%
same,reduction of capacity of synaptic membranes to bind glutamate,"[1]; 5.2 mg/kg i.p. daily for seven days, killed two hours after last injection",approximately 50%
same,inhibition of glutamate binding,"[1]; single dose 5.2 mg/kg i.p., killed 24 hours after",less inhibition
same,reduction of capacity of synaptic membranes to bind glutamate,"[1]; single dose 5.2 mg/kg i.p., killed two hours after",approximately 50%
same,inactivation rate of SSA DH,[2],300 M⁻¹ s⁻¹

# Reference: patent US20050037975A1, “Method for treatment of glutamate related disorders” (priority 1997, published 2005)
